Laboratory results from the NIST ThermoML archive (doi:10.1016/j.jct.2005.01.002).

Experiment: xn = mol fraction of the nth substance listed
Conditions: 101 kPa, Liquid

CCCOCCC [dipropyl ether] + CN(C)C=O
mass density [kg/m3]
Conditions | 298.15 K | 313.15 K | 328.15 K | 343.15 K | 358.15 K
x2 = 0.0499 | 749.01 | 735.06 | 720.89 | 706.81 | 692.16
x2 = 0.1072 | 756.74 | 742.84 | 728.72 | 714.64 | 699.96
x2 = 0.1515 | 763.14 | 749.17 | 735.12 | 720.81 | 706.1
x2 = 0.2129 | 772.12 | 758.15 | 743.94 | 729.67 | 714.89
x2 = 0.2528 | 778.22 | 764.23 | 749.93 | 735.72 | 720.91
x2 = 0.3142 | 787.82 | 773.92 | 759.52 | 745.25 | 730.4
x2 = 0.3508 | 793.89 | 780 | 765.58 | 751.24 | 736.39
x2 = 0.3895 | 800.55 | 786.59 | 772.07 | 757.74 | 742.88
x2 = 0.4353 | 808.57 | 794.67 | 780.13 | 765.72 | 750.85
x2 = 0.4788 | 816.49 | 802.63 | 788.03 | 773.58 | 758.7
x2 = 0.5053 | 821.46 | 807.64 | 793.01 | 778.54 | 763.66
x2 = 0.5243 | 825.12 | 811.32 | 796.66 | 782.18 | 767.29
x2 = 0.5454 | 829.23 | 815.46 | 800.8 | 786.3 | 771.4
x2 = 0.6019 | 840.66 | 826.99 | 812.28 | 797.75 | 782.85
x2 = 0.6475 | 850.32 | 836.74 | 821.98 | 807.43 | 792.53
x2 = 0.7054 | 863.22 | 849.75 | 834.83 | 820.5 | 805.64
x2 = 0.7502 | 873.74 | 860.32 | 845.39 | 830.97 | 816.13
x2 = 0.79 | 883.5 | 870.11 | 854.95 | 840.56 | 825.74
x2 = 0.8514 | 899.37 | 886.42 | 871.19 | 856.91 | 842.07
x2 = 0.9075 | 914.86 | 902.16 | 886.61 | 872.33 | 857.58
x2 = 0.9594 | 933.76 | 921.32 | 905.81 | 891.47 | 876.94

CCCCCOCCCCC [dipentyl ether] + CN(C)C=O
mass density [kg/m3]
Conditions | 298.15 K | 313.15 K | 328.15 K | 343.15 K | 358.15 K
x2 = 0.0416 | 781.66 | 771.34 | 759.02 | 746.76 | 734.14
x2 = 0.1163 | 787.12 | 776.77 | 764.39 | 752.03 | 739.41
x2 = 0.1609 | 790.65 | 780.27 | 767.84 | 755.43 | 742.78
x2 = 0.217 | 795.39 | 784.95 | 772.41 | 759.94 | 747.25
x2 = 0.2456 | 797.91 | 787.44 | 774.88 | 762.38 | 749.67
x2 = 0.3011 | 803.14 | 792.61 | 779.97 | 767.39 | 754.63
x2 = 0.3542 | 808.53 | 797.94 | 785.21 | 772.57 | 759.74
x2 = 0.4097 | 814.65 | 803.99 | 791.14 | 778.42 | 765.54
x2 = 0.457 | 820.29 | 809.57 | 796.61 | 783.81 | 770.89
x2 = 0.5002 | 825.83 | 815.04 | 801.98 | 789.12 | 776.12
x2 = 0.5187 | 828.35 | 817.52 | 804.42 | 791.51 | 778.49
x2 = 0.5486 | 832.57 | 821.67 | 808.5 | 795.54 | 782.47
x2 = 0.6123 | 842.35 | 831.31 | 817.97 | 804.87 | 791.69
x2 = 0.6525 | 849.15 | 837.99 | 824.54 | 811.37 | 798.06
x2 = 0.7141 | 860.63 | 849.31 | 835.68 | 822.37 | 808.9
x2 = 0.7678 | 872.03 | 860.55 | 846.65 | 833.17 | 819.65
x2 = 0.8272 | 886.29 | 874.58 | 860.43 | 846.76 | 833.11
x2 = 0.8585 | 894.75 | 882.91 | 868.61 | 854.86 | 840.93
x2 = 0.9152 | 911.86 | 899.77 | 885.03 | 871.15 | 857.02
x2 = 0.9534 | 924.96 | 912.63 | 897.96 | 883.55 | 869.17
